Assay results as given in patent publication US5876715A, “Antibodies that bind novel carbohydrate ligands (myelorollins) that cause E-selectin dependent cell rolling, and uses thereof” (The Biomembrane Institute, priority 1996, dated 1999).
“Also recorded” adds a separate entry of the source.

Tested on: E-selectin-expressing CHO cells
Assay: Static adhesion of E-selectin-expressing CHO cells to gangliosides coated on polystyrene beads affixed to glass slides
Format: cell-based, Chinese hamster
Conditions: static conditions, ganglioside coated on polystyrene beads affixed on glass slides
Experimental: Polystyrene beads (1 μm diameter) were spread and affixed to glass microscope slides as described in Materials & Methods, added with 100 ng of poly-LacNac ganglioside dissolved in isopropanol-hexane-water (50:45:10), allowed to dry for 1 hr, and immersed in PBS containing 2% BSA. The slides were placed in Petri dishes and overlaid with RPMI medium containing E-selectin-expressing CHO cells (1×10^5 /cells mL). After 10 min incubation, slides were washed with PBS and total numbers of cells adhered on beads were counted. Each point represents one experiment. Horizontal lines indicate arithmetic means.
Gangliosides coated on polystyrene beads affixed on glass slides as described above and placed in petri dishes were incubated with E-selectin-expressing CHO cells in 1% FCS-RPMI medium. After 30 min, slides were washed 3 times with PBS, and numbers of adherent cells were counted under a microscope.
Polystyrene latex beads were affixed on glass microscope slides, added with 1 nmol of ganglioside fraction dissolved in isopropanol-hexane-water (50:45:10), allowed to dry for 1 hr, and then immersed in PBS(+) containing 1% bovine serum albumin. The slides were placed in Petri dishes containing permanently E-selectin-expressing CHO cells (1×10^5) in RPMI medium. After 30 min. incubation, slides were washed with PBS and total numbers of cells adhered on the affixed beads were counted. Sdiy^2 is sialyl-Le^x -Le^x (VI^3 NeuAcV^3 FucIII^3 FucnLc6 Cer).
Static adhesion assay using polystyrene latex beads: In order to observe static adhesion with the same matrix used for dynamic adhesion assay, the following procedure was used. Polystyrene latex beads of 1 μm or 4 μm diameter (IDC Spheres™; IDC, Portland, Oreg.), affixed to objective microscope slides, were used as carriers of poly-LacNAc GSLs. 30 μL of the 4 μm diameter bead suspension (containing 2×10^9beads/mL) or 60 μL of 1 μm bead suspension (containing 1×10^11 beads/mL) were placed in Eppendorf tubes and washed with absolute ethanol 3×. Sedimented 4 μm beads were suspended in […] ethanol, and sedimented 1 μm beads were suspended in 2 mL ethanol. 1 μL aliquots of these suspensions were placed on freshly opened microscope slides (Labcraft Superfrost® Plus, Curtin Matheson Scientific, Houston, Tex.). Beads were distributed homogeneously on the glass surface within a circular spot with diameter ≈1 cm. Slides were heated at 150° C. for 50 sec, which caused the beads to adhere strongly to the surface such that they could not be washed off by water stream at various velocities. Gangliosides dissolved in isopropanol-hexane-water at the same molar concentration were applied to latex beads affixed to the slides; namely, 1 μL aliquots containing 50-100 ng ganglioside were placed on the center of the circular spot. The ganglioside thus became affixed to the bead surface. Plates were immersed in 3% BSA in PBS for 1 hr at room temp, and washed 3× with PBS containing Ca^2+ /Mg^2+.
Plates were overlaid with 5×10^5 CHO cells freshly harvested and suspended in RPMI culture medium for 15 min without moving. Washing with RPMI 3× was usually sufficient to eliminate non-adherent cells from beads. However, careful microscopic examination had to be repeated until the cells placed on control polystyrene beads were washed out. Plates were then fixed with 1% glutaraldehyde in PBS and number of cells adhered to the layer of poly-LacNAc ganglioside-coated beads were counted.

Substance | adhesion of E-selectin-expressing CHO cells (number of cells adhered on beads) | further results
VIII^3 NeuAcIII^3 FucnLc8 Cer [Fr. 10-2] | much weaker adhesion than Fr. 13-1 or Fr. 14 | 
VIII^3 NeuAcV^3 FucnLc8 Cer [Fr. 10-1] | much weaker adhesion than Fr. 13-1 or Fr. 14 | adhesion of E-selectin-expressing CHO cells (number of cells adhered on beads) (listed as Str. 4): do not show appreciable adhesion
VI^3 NeuAcV^3 FucIII^3 FucnLc6 Cer [SLe^x -Le^x, reference compound] | greatest cell adhesion; also recorded: highest adhesion; also recorded: slightly higher adhesion than Fr. 13-1; also recorded: highest binding; also recorded: higher number of E-selectin-expressing cells adhered | adhesion of E-selectin-expressing CHO cells (number of cells adhered on beads) (listed as Str. 3): much higher number of cells bound; also recorded: much higher adhesion than myelorollin
VI^3 NeuAcnLc6 Cer [Fr. 7] | no adhesion | adhesion of E-selectin-expressing CHO cells (number of cells adhered on beads) (listed as Str. 1): did not bind
X^3 NeuAcVII^3 FucV^3 FucnLc10 Cer [Fr. 13-1] | less than numbers binding to Str. 3 | 
X^3 NeuAcVII^3 FucnLc10 Cer [Fr. 12-2] | much weaker adhesion than Fr. 13-1 or Fr. 14 | adhesion of E-selectin-expressing CHO cells (number of cells adhered on beads) (listed as Str. 6): do not show appreciable adhesion
